Test results as given in patent US20210308120A1, “Use of Amitriptyline for Blocking Brain Hemichannels and Method for Potentiating its Effect in Vivo” (THERANEXUS, priority 2015, published 2021).
Entries after “also recorded” stand apart in the source; their conditions may differ.

Experiments:
[1] = system: neuropathic mice (cuff model, allodynia); test: Mechanical allodynia, von Frey test in sciatic nerve cuff model; assay type: in vivo, mouse; conditions: for Synergy with amitriptyline in vivo: combined with amitriptyline (FIGS. 7 and 11), 0.5 mg/kg
Protocol: Paw withdrawal thresholds of mice treated with either amitriptyline 6 mg/kg alone (AMIT 6) or amitriptyline 12 mg/kg alone (AMIT 12) are also shown (D). FIG. 10 (E) represents area under curve analysis.
Area under curve analysis are shown (B).
Neuropathic pain was induced to adult male C57BL/6J mice (Charles River, L'Arbresle, France) by cuffing the main branch of the right sciatic nerve (For detailed description and video illustration: Yalcin et al. 2014, J Vis Exp 89:e51608). Surgeries were performed under ketamine (68 mg/kg)/xylazine (10 mg/kg) intraperitoneal (i.p.) anesthesia (Centravet, Tadden, France). The common branch of the right sciatic nerve was exposed and a cuff of PE-20 polyethylene tubing (Harvard Apparatus, Les Ulis, France) of standardized length (2 mm) was unilaterally inserted around it (Cuff group). The shaved skin was closed using suture.
Injections were done once a day during the 17 first days of treatment, in the afternoon. As a single dose per day was ineffective, treatment was then done twice a day, morning and afternoon, from the 8 last days of treatment.
Mechanical allodynia was tested using von Frey hairs and results were expressed in grams (For detailed description and video illustration: Yalcin et al. 2014, J Vis Exp 89:e51608). Tests were done during the morning, starting at least 2 hours after lights on. Mice were placed in clear Plexiglas boxes (7 cm×9 cm×7 cm) on an elevated mesh screen. Calibrated von Frey filaments (Bioseb, Vitrolles, France) were applied to the plantar surface of each hindpaw until they just bent, in a series of ascending forces up to the mechanical threshold. Filaments were tested five times per paw and the paw withdrawal threshold was defined as the lower of two consecutive filaments for which three or more withdrawals out of the five trials were observed.
Mice were subjected to sciatic nerve cuffing and then tested with the von Frey test to evaluate allodynia quantified as pressure threshold.
Mice were subjected to sciatic nerve cuffing and then tested with the von Frey test to evaluate allodynia quantified as pressure threshold. Neuropathic mice, characterized by a decrease of pressure threshold after surgery, were then treated during 25 days and tested by the von Frey test during this period.

[2] = biological target: T1, Cx43 hemichannels (Mus musculus, UniProt P23242); test: Hemichannel activity by ethidium bromide uptake in LPS-treated mouse cortical astrocyte cultures; assay type: cell-based; conditions: 24 hours; for HC activity (ethidium bromide uptake) after LPS-induced opening: LPS 1 μg/mL and mefloquine or MFA 10 μM; for Degree of Cx43 hemichannel inhibition, MFA compared with mefloquine: both 10 μM, LPS 1 μg/mL
T1 construct: Astrocyte cultures were prepared from cortex of rats and mice as previously described; endogenous in cells; host or cells: secondary cultures of mouse cortical astrocytes, LPS-treated
Protocol: Astrocyte cultures were prepared from cortex of rats and mice as previously described (Meme et al., 2006). Cells were seeded on polyornithine coated 35 mm dishes (5×10^5 cells/dish) or into 100-mm diameter plastic dishes at the density of 3×10^6 cells/dish. After 8-10 days, when cells grown into 35 mm in diameter plastic culture dishes have reached confluence, 1 μM of cytosine-arabinoside was added to the culture medium. In addition, when cells grown into 100 mm plastic culture dishes reached confluence, they were harvested with trypsin-EDTA. Then, cells were re-plated (2×10^5 cells per well), as secondary cultures, on glass coverslips placed inside 24-round-well plate. Finally, they were grown to confluence and cytosine-arabinoside was added. Medium was changed twice a week for all cells until the experiments were carried out. Hemichannel activity was evaluated in secondary cultures of cortical astrocytes by Ethidium Bromide (EtBr) uptake as already published (Orellana et al, 2011). 24 h before experiment, cells were pretreated or not with 1 μg/ml LPS known to open Cx43 HeC. The day of experiment, cells were first preincubated in HEPES buffer solution. Then, cells were exposed to 5 μM EtBr for 10 min at room temperature. Cells were then washed with the same buffer before fixation with 4% paraformaldehyde in PBS. Fixed cells were examined at 40× with a confocal laser-scanning microscope. Stacks of 10 consecutive confocal images taken at 0.49 μm intervals were acquired. For each experimental condition, 6 images were captured and then analyzed with Image J program (NIH software). LPS was added to mouse cortical astrocytic cultures during 24 hours to open Cx43 hemichannels and amitriptyline was also added during the same time to evaluate its action on hemichannel activity, quantified by cell uptake of ethidium bromide.

[3] = system: SN-CCI rats (neuropathic pain, hyperalgesia); test: Randall & Selitto test in SN-CCI rats, chronic 14-day administration; assay type: in vivo, rat; conditions: 14 days; for Potentiation of amitriptyline anti-hyperalgesic effect: combined with amitriptyline 12 mg/kg, mefloquine or MFA 0.5 mg/kg i.p. twice a day
Description: Data are the means±S.E.M. of n=8-14 rats.
Data are the means±S.E.M. of n=8-14 rats. *p<0.05, **p<0.01, ***p<0.001 as compared with “saline+saline” group at the same time, ≠p<0.05 as compared between amitriptyline groups, two-way ANOVA, Bonferroni test.
(§1) One week after their arrival, rats were anesthetized with sodium pentobarbital before exposing the common sciatic nerve. As described in Bennett's article, four chromic catgut (5-0) ligations were tied loosely proximally to the sciatic trifurcation (Bennett and Xie, 1988).
(§2) All behavioral assessments were conducted between 9 a.m. and 5 p.m. in a quiet room. An increasing pressure was applied to the right hind paw of SN-CCI (Sciatic Nerve-Chronic Constriction Injury) rat to evaluate hyperalgesia-like behavior (Viguier and al, 2013). Values correspond to the pressure threshold producing the paw withdrawal and then the vocalization of the rat.
Osmotic mini-pumps (Alzet, model 2ML2), delivering for the following 14 days amitriptyline or vehicle were subcutaneously implanted.
a) Rats were ligated on sciatic nerve and then tested with the Randall & Selitto test 14 days after surgery, to evaluate hyperalgesia quantified as pressure threshold. Neuropathic rats, characterized by a decrease of pressure threshold after surgery, were then treated during 14 days and tested by the Randall & Selitto test during this period.

[4] = cited from earlier work
[5] = system: mice subjected to FST; test: Forced Swim Test (FST); assay type: in vivo, mouse; conditions: amitriptyline 12 mg/kg + mefloquine 1 mg/kg per os; 2nd 3-min period
Protocol: The FST is the most used rodent model for screening antidepressants (Porsolt et al, 1977). Mice were dropped individually in a glass cylinder (25 cm high, 9 cm diameter) filled with 10 cm 25° C. water. The experiment was recorded with a camcorder, placed in front of the glass cylinders. Video were scored at a later time by an experimenter blind to the treatments. The indices of depression-related behavior are the immobility time, the swimming time and the climbing time.
FST test evaluates the despair behavior which is commonly reversed by antidepressants. During FST, the swimming time of each mouse was measured on each 1-min period, on 1st and 2nd 3-min periods.

[6] = Pharmacokinetics of amitriptyline/mefloquine in plasma and brain of mice (LC-MS); assay type: in vivo, mouse
Protocol: Data are presented as mean±SEM.
Adult male C57BL/6J mice (Charles River, L'Arbresle, France) were used. Mice were kept in collective cages for habituation to the facility for one week before experimental testing with food and water ad libitum. Mice were maintained on a light/dark cycle of 12 hours with light onset at 8h00 and with a controlled temperature of 21° C.±1° C.
Injections were done twice.
On day 18th of treatment, mice received the morning injection and samplings were done 2 hours after the injection. Mice were anesthetized just before sampling (ketamine 68 mg/kg, xylazine 10 mg/kg) and blood was collected by intracardiac puncture (Vacuette tubes, with lithium/heparin gel). The mouse was then decapitated, and the brain extracted and fast frozen in dry ice.
Vacuette tubes with blood were centrifugated (3000 rpm, 20 min), plasma recovered and stored at −80° C. until shipping in dry ice.

[7] = system: SN-CCI rats (neuropathic pain, hyperalgesia); test: Randall & Selitto test in SN-CCI rats, repeated administration every 150 minutes; assay type: in vivo, rat; conditions: mefloquine 1 mg/kg with amitriptyline i.p. every 150 min; at 90 and 240 min
Protocol: as §1, §2

[8] = amitriptyline 12 mg/kg s.c. osmotic pump, mefloquine 0.5 mg/kg i.p. twice a day, vs saline

T1 sequence (P23242 whole entry): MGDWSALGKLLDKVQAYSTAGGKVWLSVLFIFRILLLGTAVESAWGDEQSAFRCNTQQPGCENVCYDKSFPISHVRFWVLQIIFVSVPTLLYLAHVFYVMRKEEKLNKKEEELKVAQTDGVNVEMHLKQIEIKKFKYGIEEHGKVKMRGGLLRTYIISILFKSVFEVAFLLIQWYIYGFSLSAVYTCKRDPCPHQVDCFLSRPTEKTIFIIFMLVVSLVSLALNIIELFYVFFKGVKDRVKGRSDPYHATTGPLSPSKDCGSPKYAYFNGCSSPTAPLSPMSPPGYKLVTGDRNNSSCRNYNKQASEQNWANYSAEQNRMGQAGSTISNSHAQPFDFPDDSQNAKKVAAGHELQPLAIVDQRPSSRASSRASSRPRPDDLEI

O=C(O)c1cccnc1Nc1cccc(C(F)(F)F)c1 [niflumic acid]
Synergy with amitriptyline in vivo [1]: not observed

Cc1ccc(Cl)c(Nc2ccccc2C(=O)O)c1Cl [MFA, meclofenamic acid]
Synergy with amitriptyline in vivo [1]: not observed
HC activity (ethidium bromide uptake) after LPS-induced opening [2]: reversed this effect
Degree of Cx43 hemichannel inhibition, MFA compared with mefloquine [2]: presented a higher inhibitor effect
Potentiation of amitriptyline anti-hyperalgesic effect [3]: did not present any improved effect of amitriptyline

hydroxymefloquine
Presence as metabolite ([4]; in vivo): minute quantities only

O[C@H](c1cc(C(F)(F)F)nc2c(C(F)(F)F)cccc12)[C@@H]1CCCCN1 (relative stereo) [mefloquine, (R*, S*)-(±)-α-2-piperidinyl-2,8-bis (trifluoromethyl)-4-quinolinemethanol]
Potentiation of amitriptyline antiallodynic effect ([1]; mefloquine 0.1, 0.33, 1 mg/kg i.p. with amitriptyline 6 mg/kg, 25 days): significantly potentiated amitriptyline 6 mg/kg
Antiallodynic effect of combination ([1]; mefloquine 0.1 and 0.33 mg/kg with amitriptyline 6 mg/kg): antiallodynic effect similar to amitriptyline 12 mg/kg
Swimming time [5]: able to potentiate amitriptyline 12 mg/kg
HC activity (ethidium bromide uptake) after LPS-induced opening [2]: reversed this effect
Degree of Cx43 hemichannel inhibition, MFA compared with mefloquine [2]: less efficient
Concentrations in blood and brain tissue ([6]; amitriptyline 6, 12 mg/kg, mefloquine 0.1, 0.3, 1 mg/kg i.p., 18 days, 2 hours after injection): dose-dependent
Effect on concentrations of amitriptyline in blood and brain ([6]; even for the highest doses of mefloquine): does not induce an increase
Mefloquine concentrations in plasma and brain at optimal in vivo potentiation ([6]; mice, FIG. 12): micromolar scale
Paw withdrawal threshold (pressure) [3, 8]: did not present significant effect on both responses
Vocalization threshold (pressure) [3, 8]: did not present significant effect on both responses
Potentiation of amitriptyline anti-hyperalgesic effect [3]: significantly potentiated amitriptyline hyperalgesic profile from day 6 to day 14; also recorded: significantly potentiated amitriptyline hyperalgesic at day 14
Potentiation of amitriptyline anti-hyperalgesic effect [7]: significantly improved the anti-hyperalgesic effect of amitriptyline

O=C(O)c1cc(C(F)(F)F)nc2c(C(F)(F)F)cccc12 [2,8-bistrifluoromethyl-4-quinoline carboxylic acid]
Time to maximum plasma concentrations ([4]; in vivo): 2 weeks
Maximum plasma concentrations, higher than those of mefloquine ([4]; relative to mefloquine): about 50%
